# Experimental data from patent US4724233A, “Therapeutical application of phosphonylmethoxyalkyl adenines” (Stichting Rega VZW, priority 1985, dated 1988).
# Where two headings read alike, the source gives them in different places.
# Key:
# Herpes simplex I (KOS) = experiment: inhibition of cytopathic effect of herpes simplex 1 (KOS); format: cell-based, herpes simplex virus type 1; conditions: PRK cells; for EC50: Human alphaherpesvirus 1, read-out: MIC50
# HSV-2 (strain) Lyons = experiment: inhibition of cytopathic effect of HSV-2 strain Lyons; format: cell-based, herpes simplex virus type 2; conditions: Human alphaherpesvirus 2; Table 4; HSV-2 Lyons, PRK cells; read-out: MIC50
# Reovirus = experiment: inhibition of cytopathic effect of reovirus; format: cell-based; conditions: Reovirus sp.; Table 3; Vero B cells; read-out: MIC50
# Measles = experiment: inhibition of cytopathic effect of measles; format: cell-based; conditions: Measles morbillivirus; Table 3; Vero Flow cells; read-out: MIC50
# HSV-1 (strain) McIntyre = experiment: inhibition of cytopathic effect of HSV-1 strain McIntyre; format: cell-based, herpes simplex virus type 1; conditions: Human alphaherpesvirus 1; Table 4; HSV-1 McIntyre, PRK cells; read-out: MIC50
# Sindbis = experiment: inhibition of cytopathic effect of Sindbis; format: cell-based; conditions: Table 3; Vero B cells; read-out: MIC50
# Polio 1 = experiment: microbe, parasite or virus in culture; format: cell-based; conditions: HeLa, read-out: MIC50
# Vaccinia = experiment: microbe, parasite or virus in culture; format: cell-based; conditions: Orthopoxvirus vaccinia, PRK, read-out: MIC50
# Herpes simplex 2 (G) = experiment: inhibition of cytopathic effect of herpes simplex 2 (G); format: cell-based, herpes simplex virus type 2; conditions: Human alphaherpesvirus 2, PRK, PRK cells, read-out: MIC50
# in vitro [1] = conditions: rabbit, prk cells
# vaccinia virus (VV) = format: cell-based; conditions: PRK cells, average of two determinations
# Moloney sarcoma = experiment: inhibition of Moloney sarcoma virus; format: cell-based, Moloney mouse sarcoma virus; conditions: Mus musculus; Table 3; MO cells; read-out: MIC50
# Parainfluenza 3 = experiment: inhibition of cytopathic effect of parainfluenza 3; format: cell-based; conditions: Table 3; Vero B cells; read-out: MIC50
# HSV-1 (strain) F = experiment: inhibition of cytopathic effect of HSV-1 strain F; format: cell-based, herpes simplex virus type 1; conditions: Human alphaherpesvirus 1; Table 4; HSV-1 F, PRK cells; read-out: MIC50
# HSV-2 (strain) 196 = experiment: inhibition of cytopathic effect of HSV-2 strain 196; format: cell-based, herpes simplex virus type 2; conditions: Human alphaherpesvirus 2; Table 4; HSV-2 196, PRK cells; read-out: MIC50
# [2] = antimetabolic activity: incorporation of 3H-labeled precursors into primary rabbit kidney cells; conditions: rabbit, prk cells
# [3] = test system: herpes simplex virus type 1 (HSV-1) (strain KOS); format: cell-based; conditions: PRK cells
# Vesicular stomatitis = experiment: microbe, parasite or virus in culture; format: cell-based; conditions: read-out: MIC50
# Coxsackie B4 = experiment: inhibition of cytopathic effect of Coxsackie B4; format: cell-based; conditions: Enterovirus B, B4; Table 3; Vero B, HeLa cells; read-out: MIC50
# [4] = test system: HSV-1 (strain) TK^- C1101; experiment: inhibition of cytopathic effect of HSV-1 TK- strain C1101; format: cell-based, herpes simplex virus type 1; conditions: Human alphaherpesvirus 1, PRK, read-out: MIC50
# [5] = test system: HSV-1 (strain) TK^- B2006; experiment: inhibition of cytopathic effect of HSV-1 TK- strain B2006; format: cell-based, herpes simplex virus type 1; conditions: Human alphaherpesvirus 1, PRK, read-out: MIC50
# in vitro [6] = conditions: rabbit, prk cells; remark: listed apart in the source
# [7] = 48 h, 10 μg/ml (value in parentheses)
# [8] = ID50 Leu incorporation, (3H-4,5)Leu
# [9] = ID50 Urd incorporation, (3H-5)Urd
# [10] = ID50 dThd incorporation, (3H-methyl) dThd
# [11] = ID50 dUrd incorporation, (3H-1',2')dUrd
SMILES,EC50 (Herpes simplex I (KOS); Table 3) [µg/mL],"MIC50 (Herpes simplex I (KOS); Table 4, HSV-1 KOS) [µg/mL]",EC50 (HSV-2 (strain) Lyons) [µg/mL],EC50 (Reovirus) [µg/mL],EC50 (Measles) [µg/mL],EC50 (HSV-1 (strain) McIntyre) [µg/mL],EC50 (Sindbis) [µg/mL],EC50 (Polio 1) [µg/mL],EC50 (Vaccinia) [µg/mL],EC50 (Herpes simplex 2 (G); Table 3) [µg/mL],"EC50 (Herpes simplex 2 (G); Table 4, HSV-2 G) [µg/mL]",MCC at 72 h (in vitro [1]) [µg/mL],"Titer of VV (vaccinia virus (VV); 48 h, 100 μg/ml) [log10 PFU/ml]",EC50 (Moloney sarcoma) [µg/mL],EC50 (Parainfluenza 3) [µg/mL],EC50 (HSV-1 (strain) F) [µg/mL],EC50 (HSV-2 (strain) 196) [µg/mL],"IC50 [2, 8] [µg/mL]",EC50 (Vesicular stomatitis) [µg/mL],EC50 (Coxsackie B4) [µg/mL],also measured
"Nc1ncnc2c1ncn2CC(O)COCP(=O)(O)O (racemic) [No. 2, (RS)-9-(2-hydroxy-3-phosphonylmethoxypropyl)-adenine]",2 to 10,2 to 10,10 to 15,> 200,> 20,10 to 15,> 400,> 400,0.3 to 1,10 to 15,10 to 15,> 400,2.0,4.5,> 200,10 to 15,10 to 15,> 400,> 400,> 400,"Titer of VV (vaccinia virus (VV); 1 h, 100 μg/ml): 2.2 log10 PFU/ml; Titer of VV (vaccinia virus (VV); 24 h, 100 μg/ml): 2.2 log10 PFU/ml; Titer of VV (vaccinia virus (VV); [7]): < 1.3 log10 PFU/ml; Titer of VV (vaccinia virus (VV); 72 h, 100 μg/ml): 1.8 log10 PFU/ml; IC50 [2, 9]: > 400 µg/mL; IC50 [2, 10]: 280 µg/mL; IC50 [2, 11]: > 400 µg/mL; Titer of HSV-1 ([3]; 24 h, 100 μg/ml): < 1.3 log10 PFU/ml; Titer of HSV-1 [3, 7]: < 6.0 log10 PFU/ml; Titer of HSV-1 ([3]; 48 h, 100 μg/ml): < 1.3 log10 PFU/ml; EC50 [4]: 7 µg/mL"
"Nc1ncnc2c1ncn2C[C@H](O)COCP(=O)(O)O (racemic) [No. 3, (RS)-9-(2-hydroxy-3-phosphonylmethoxypropyl)-adenine]",70 to 150,70 to 150,30 to 100,> 400,> 400,150,> 400,> 400,15 to 30,30 to 150,30 to 150,≥ 200,–,–,> 400,70 to 150,70 to 150,> 400,> 400,> 400,"IC50 [2, 9]: > 400 µg/mL; IC50 [2, 10]: > 400 µg/mL; IC50 [2, 11]: > 400 µg/mL; EC50 [4]: 30 to 40 µg/mL"
"Nc1ncnc2c1ncn2C[C@H](O)CO [(S)-DHPA, 9-(S)-(2,3-dihydroxypropyl)adenine, reference compound]",> 400,–,–,100,20,–,> 400,> 400,50,> 400,–,> 400,5.2,> 200,25,–,–,> 400,20,130,"Titer of VV (vaccinia virus (VV); 1 h, 100 μg/ml): 2.0 log10 PFU/ml; Titer of VV (vaccinia virus (VV); 24 h, 100 μg/ml): 4.7 log10 PFU/ml; Titer of VV (vaccinia virus (VV); 72 h, 100 μg/ml): 5.5 log10 PFU/ml; IC50 [2, 9]: > 400 µg/mL; IC50 [2, 10]: 350 µg/mL; IC50 [2, 11]: > 400 µg/mL; Titer of HSV-1 ([3]; 1 h, 100 μg/ml): 1.3 log10 PFU/ml; Titer of HSV-1 ([3]; 24 h, 100 μg/ml): 6.5 log10 PFU/ml; Titer of HSV-1 ([3]; 48 h, 100 μg/ml): 6.9 log10 PFU/ml; Titer of HSV-1 ([3]; 72 h, 100 μg/ml): 6.9 log10 PFU/ml"
"O=c1[nH]c(=O)n([C@H]2C[C@H](O)[C@@H](CO)O2)cc1I [IDU, 5-iodo-2'-deoxyuridine, reference compound]",–,–,0.2,–,–,0.2,–,–,–,–,0.2,–,–,–,–,0.2,2,–,–,–,"EC50 (Herpes simplex I (KOS); Table 4, HSV-1 KOS): 0.2 µg/mL"
"Nc1ncnc2c1ncn2CCOCP(=O)(O)O [No. 6, 9-(2-phosphonylmethoxyethyl)adenine]",15 to 30,15 to 30,15,> 400,> 400,30,> 400,> 400,300,7,–,≥ 200,5.54,0.67,> 400,–,15,–,> 400,> 200,"Titer of HSV-1 ([3]; 24 h, 100 μg/ml): < 1.3 log10 PFU/ml; Titer of HSV-1 [3, 7]: 6.36 log10 PFU/ml; Titer of HSV-1 ([3]; 48 h, 100 μg/ml): 3.34 log10 PFU/ml; EC50 [4]: 7 µg/mL; EC50 [5]: 3 µg/mL; IC50 (in vitro [6]; ID50 Leu incorporation): > 400 µg/mL; IC50 (in vitro [6]; ID50 Urd incorporation): > 400 µg/mL; IC50 (in vitro [6]; ID50 dThd incorporation): 242 µg/mL; IC50 (in vitro [6]; ID50 dUrd incorporation): 114 µg/mL"
